Assay [1] concerns the target GCN2 kinase (Homo sapiens (Human), UniProt Q9P2K8). Nature of the assay: GCN2 Enzyme Inhibition Assay (Transcreener ADP2 fluorescence polarization). The class given is biochemical. The note with it: 280 μM ATP, 200 μM (RS)7 peptide, 4 nM GCN2, 25° C.; for Ki: Ki(app). The procedure, abridged:
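At 25 °C, GCN2 kinase (typical final concentration 4 nM) and (RS)7 peptide in Tris-HCl pH 7.5 buffer with MgCl2, NaCl and DTT were preincubated with compound for 10 min, then ATP was added for a 1 h reaction. ADP was read by FP with antibody/Alexa633 tracer. Non-linear tight-binding analysis gave IC50 and apparent Ki.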
For orientation: In fluorescence polarisation assays a small probe gives low polarisation when free and higher when bound to something large.

Assay [2] concerns the target intracellular GCN2 (phosphorylation of the GCN2 substrate eIF2α) (Homo sapiens (Human), UniProt Q9P2K8). Nature of the assay: GCN2 Cellular Inhibition Assay (AlphaScreen SureFire P-eIF2α Ser51, borrelidin-treated U2OS cells). The class given is cell-based. The note with it: 10 μM borrelidin, 1 h, phosphorylated eIF2α Ser51, read-out: GCN2 Biomarker (IC50). In a few lines:
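Phospho-eIF2α (Ser51) measured by AlphaScreen SureFire in lysates of U2OS cells stimulated 1 h at 37 °C with 10 μM borrelidin alongside compound, 4-fold dilutions from 40 μM. Inhibition expressed as percent relative to borrelidin-alone controls.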
On the technique in general: Alpha assays give light when donor and acceptor beads are brought close together.

Assay [3] deals with primary human pan T-cells. Nature of the assay: Human IL-2 Assay for GCN2 Inhibition (IL-2 secretion from T cells in low amino acid condition). The class given is cell-based. The note with it: IL-2 secretion from human T cells stimulated with anti-CD3/CD28 in low amino acid condition, ELISA, read-out: IL2/T-cell EC50. From the text: Tumor microenvironment is profoundly immuno-suppressive. This may be attributed to the depletion of amino acids (like arginine and tryptophan) which triggers the activation of GCN2 in immune cells, including T cell and myeloid cells. In T cells, activation of GCN2 leads to reduce effector functions of CD8 T cells and induction and/or maintenance of immuno-suppressive T-regs. Inhibition of that immuno-suppressive response by GCN2 inhibitors enables an anti-cancer immune response by activating effector T-cells. Herein we describe an in-vitro system we established using human T-cells stimulated in low amino acid condition in order to engage the GCN2 biology. The method described involves the modulation of IL-2 levels secreted by human T cells in responses to the GCN2 inhibitors disclosed herein.
Amino acid-free RPMI was reconstituted with all but one of the amino acids found in standard RMPI (e.g. Arginine, Tryptophan), 10% charcoal-stripped fetal bovine serum, 100 Units/mL penicillin and 0.1 mg/mL streptomycin. Primary human pan T-cells were isolated using Pan T Cell Isolation Kit, human (MACS Miltenyi biotech Cat # Order no. 130-096-535) from apheresis cones and 5×104 pan T-cells per well. The purified T cells are seeded in Nunc™ 96-Well Polystyrene Round Bottom Microwell Plates (the cells are rested in No TRP media in a 15 ml falcon tube in the incubator for 30-45 minutes while titrations for tryptophan and the GCN2 inhibitor compound are made) A plate matrix was developed to titrate both a GCN2 inhibitor and the amino acid of interest ranging from “No Amino Acid” condition, up to the concentration found in the regular RPMI media (20 μM for TRP and 950 μM for Arginine). The cells were incubated for 30 min at 37° C. with the GCN2 inhibitor and then stimulated with 5×104 anti-CD3/CD28 Dynabeads® per well. After 96 hours of incubation the IL-2 level in the supernatant were measured using ELISA (R&D systems Cat # DY202 (Human IL-2 DuoSet ELISA). Data were plotted in GraphPad Prism software and EC50 is calculated.
In general terms: ELISA stands for enzyme-linked immunosorbent assay.

The source of these data is patent US10793563B2, “GCN2 inhibitors and uses thereof” (Merck Patent GmbH, priority 2018, dated 2020).

Read-outs that look alike come from different tables or passages of the source.

intracellular GCN2 (phosphorylation of the GCN2 substrate eIF2α), sequence (Q9P2K8 whole entry): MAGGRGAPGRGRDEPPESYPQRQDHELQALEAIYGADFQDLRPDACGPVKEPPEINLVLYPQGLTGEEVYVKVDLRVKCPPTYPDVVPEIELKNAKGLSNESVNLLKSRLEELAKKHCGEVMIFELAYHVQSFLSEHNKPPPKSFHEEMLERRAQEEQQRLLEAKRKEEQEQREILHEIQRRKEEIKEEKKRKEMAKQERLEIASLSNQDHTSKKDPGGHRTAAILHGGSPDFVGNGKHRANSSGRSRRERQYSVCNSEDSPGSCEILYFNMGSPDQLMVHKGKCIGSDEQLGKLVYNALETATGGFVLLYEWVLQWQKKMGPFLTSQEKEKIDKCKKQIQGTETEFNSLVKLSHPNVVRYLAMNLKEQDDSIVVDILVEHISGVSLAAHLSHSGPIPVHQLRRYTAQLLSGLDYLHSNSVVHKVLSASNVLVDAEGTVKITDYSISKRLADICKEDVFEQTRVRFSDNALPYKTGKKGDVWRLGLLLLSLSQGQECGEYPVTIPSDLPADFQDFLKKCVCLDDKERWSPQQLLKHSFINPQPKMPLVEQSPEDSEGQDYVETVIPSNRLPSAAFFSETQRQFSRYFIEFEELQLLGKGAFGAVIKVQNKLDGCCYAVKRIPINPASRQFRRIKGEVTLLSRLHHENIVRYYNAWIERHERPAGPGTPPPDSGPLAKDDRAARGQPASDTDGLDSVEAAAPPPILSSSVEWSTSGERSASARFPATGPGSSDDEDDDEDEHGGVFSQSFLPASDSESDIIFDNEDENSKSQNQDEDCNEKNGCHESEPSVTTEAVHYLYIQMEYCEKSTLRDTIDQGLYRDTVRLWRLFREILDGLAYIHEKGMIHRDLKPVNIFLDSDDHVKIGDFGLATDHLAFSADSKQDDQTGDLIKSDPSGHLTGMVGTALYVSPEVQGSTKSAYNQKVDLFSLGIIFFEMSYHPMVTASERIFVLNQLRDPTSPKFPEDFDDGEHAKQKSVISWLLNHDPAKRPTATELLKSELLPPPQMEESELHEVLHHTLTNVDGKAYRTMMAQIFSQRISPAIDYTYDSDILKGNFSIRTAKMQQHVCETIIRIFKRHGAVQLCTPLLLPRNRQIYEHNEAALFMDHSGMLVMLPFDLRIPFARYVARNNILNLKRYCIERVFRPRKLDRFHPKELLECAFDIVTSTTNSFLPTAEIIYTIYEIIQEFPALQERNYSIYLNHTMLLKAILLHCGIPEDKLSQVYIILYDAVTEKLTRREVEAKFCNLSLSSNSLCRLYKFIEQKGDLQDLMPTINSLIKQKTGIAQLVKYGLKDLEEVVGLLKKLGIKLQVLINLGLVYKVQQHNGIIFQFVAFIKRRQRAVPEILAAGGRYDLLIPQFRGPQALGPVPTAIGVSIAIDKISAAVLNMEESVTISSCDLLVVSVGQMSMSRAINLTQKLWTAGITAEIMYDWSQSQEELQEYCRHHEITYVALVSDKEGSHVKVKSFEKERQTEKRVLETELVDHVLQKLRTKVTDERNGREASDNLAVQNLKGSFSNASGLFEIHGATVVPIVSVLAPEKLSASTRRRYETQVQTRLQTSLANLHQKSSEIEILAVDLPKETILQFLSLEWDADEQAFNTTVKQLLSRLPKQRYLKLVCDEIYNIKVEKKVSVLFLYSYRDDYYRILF
GCN2 kinase, sequence (Q9P2K8 whole entry): as above

For `NC(=O)[C@@H]1CCCN(c2ncc(F)c(-c3cnc4ccc(C(F)(F)F)cn34)n2)C1` [I-223, (R)-1-(5-fluoro-4-(6-(trifluoromethyl)imidazo[1,2-a]pyridin-3-yl)pyrimidin-2-yl)piperidine-3-carboxamide], the IC50 – broadly, the concentration needed to halve the response being measured – was below 10 nM in assay [1] and below 500 nM in assay [2]. Also, in assay [3] (Homo sapiens, T-cell, 96 h), the EC50 lay within 100 to 500 nM. Turning to `Cc1[nH]ncc1[C@H]1CN(c2ccnc(-c3cnc4ccc(Cl)cn34)n2)C[C@@H](C)O1` [I-561, (2R,6S)-4-(2-(6-chloroimidazo[1,2-a]pyridin-3-yl)pyrimidin-4-yl)-2-methyl-6-(5-methyl-1H-pyrazol-4-yl)morpholine], in assay [3] (Homo sapiens, T-cell, 96 h), the EC50 is 100 to 500 nM. In the case of `C[C@@H]1C[C@H](c2cn[nH]c2)CN(c2nccc(-c3cnc4ccc(C(F)(F)F)cn34)n2)C1` [I-136, 3-(2-((3R,5R)-3-Methyl-5-(1H-pyrazol-4-yl)piperidin-1-yl)pyrimidin-4-yl)-6-(trifluoromethyl)imidazo[1,2-a]pyridine], the IC50 in assay [2] was below 500 nM. Also, the EC50 was below 100 nM in assay [3] (Homo sapiens, T-cell, 96 h) and 100 to 500 nM in assay [3] (96 hours). As to `C[C@H]1[C@H](c2cn[nH]c2)N(CC2(C)COC2)CCN1c1ccnc(-c2cnc3ccc(C(F)(F)F)cn23)n1` [I-482, 3-(4-((2 S,3 S)-2-methyl-4-((3-methyloxetan-3-yl)methyl)-3-(1H-pyrazol-4-yl)piperazin-1-yl)pyrimidin-2-yl)-6-(trifluoromethyl)imidazo[1,2-a]pyridine], the half-inhibitory concentration (IC50) in assay [1] was 10 to 100 nM. Further, in assay [3] (Homo sapiens, T-cell, 96 h), the EC50 was above 500 nM. Take `FC(F)(F)c1ccc2ncc(-c3nccc(N4CCN(CC5CCOCC5)C(c5cn[nH]c5)C4)n3)n2c1` (centres unmarked) [I-354, 3-(4-(3-(1H-pyrazol-4-yl)-4-((tetrahydro-2H-pyran-4-yl)methyl)piperazin-1-yl)pyrimidin-2-yl)-6-(trifluoromethyl)imidazo[1,2-a]pyridine]: the IC50 in assay [1] is below 10 nM; in assay [2], below 500 nM. For the same compound, in assay [3] (Homo sapiens, T-cell, 96 h), the EC50 is 100 to 500 nM. Turning to `CC1CCC(C(N)=O)CN1c1ccnc(-c2cnc3ccc(C(F)(F)F)cn23)n1` (centres unmarked) [I-200, 6-methyl-1-(2-(6-(trifluoromethyl)imidazo[1,2-a]pyridin-3-yl)pyrimidin-4-yl)piperidine-3-carboxamide], the IC50 in assay [1] is below 10 nM; in assay [2], below 500 nM. For the same compound, the EC50 in assay [3] (Homo sapiens, T-cell, 96 h) was 100 to 500 nM. For the compound `C[C@@H]1CN(c2ccnc(-c3cnc4ccc(C(F)(F)F)cn34)n2)C[C@H](c2cn[nH]c2)O1` [I-564, (2R,6S)-2-methyl-6-(1H-pyrazol-4-yl)-4-(2-(6-(trifluoromethyl)imidazo[1,2-a]pyridin-3-yl)pyrimidin-4-yl)morpholine], in assay [3] (Homo sapiens, T-cell, 96 h), the EC50 was below 100 nM. On the same count and under the same terms, under `C[C@H]1CN(c2ccnc(-c3cnc4ccc(C(F)(F)F)cn34)n2)C[C@@H](C(N)=O)O1` [I-562, (2S,6S)-6-methyl-4-(2-(6-(trifluoromethyl)imidazo[1,2-a]pyridin-3-yl)pyrimidin-4-yl)morpholine-2-carboxamide] stands 100 to 500 nM; under `C[C@@H]1C[C@@H](N=S(C)(C)=O)CN(c2ccnc(-c3cnc4ccc(C(F)F)cn34)n2)C1` [I-569, (((3R,5R)-1-(2-(6-(difluoromethyl)imidazo[1,2-a]pyridin-3-yl)pyrimidin-4-yl)-5-methylpiperidin-3-yl)imino)dimethyl-λ6-sulfanone], 100 to 500 nM; under `C[C@@H]1C[C@@H](c2cn[nH]c2)CN(c2ccnc(-c3cnc4ccc(Cl)cn34)n2)C1` [I-559, 6-chloro-3-(4-((3R,5S)-3-methyl-5-(1H-pyrazol-4-yl)piperidin-1-yl)pyrimidin-2-yl)imidazo[1,2-a]pyridine], below 100 nM. For the compound `C[C@H]1CN(c2ccnc(-c3cnc4cc(F)c(Cl)cn34)n2)C[C@@H](c2cn[nH]c2)O1` [I-568, (2S,6R)-4-(2-(6-chloro-7-fluoroimidazo[1,2-a]pyridin-3-yl)pyrimidin-4-yl)-2-methyl-6-(1H-pyrazol-4-yl)morpholine], in assay [3] (Homo sapiens, T-cell, 96 h), the EC50 lay in the range of 100 to 500 nM. For `C[C@@H]1CN(c2ccnc(-c3cnc4ccc(Cl)cn34)n2)C[C@H](c2cn[nH]c2)O1` [I-566, (2R,6S)-4-(2-(6-chloroimidazo[1,2-a]pyridin-3-yl)pyrimidin-4-yl)-2-methyl-6-(1H-pyrazol-4-yl)morpholine], in assay [3] (Homo sapiens, T-cell, 96 h), the EC50 is below 100 nM. `Cc1n[nH]cc1C1CN(c2nccc(-c3cnc4ccc(Cl)cn34)n2)CC(C)O1` (centres unmarked) [I-160, 4-(4-(6-chloroimidazo[1,2-a]pyridin-3-yl)pyrimidin-2-yl)-2-methyl-6-(3-methyl-1H-pyrazol-4-yl)morpholine]: the concentration for half-maximal inhibition (IC50) in assay [1] was below 10 nM. In assay [3] (Homo sapiens, T-cell, 96 h), the EC50 lay within 100 to 500 nM. Consider `C[C@@H]1[C@H](c2cn[nH]c2)N(C2COC2)CCN1c1ccnc(-c2cnc3ccc(C(F)(F)F)cn23)n1` [I-565, 3-(4-((2R,3 S)-2-methyl-4-(oxetan-3-yl)-3-(1H-pyrazol-4-yl)piperazin-1-yl)pyrimidin-2-yl)-6-(trifluoromethyl)imidazo[1,2-a]pyridine], for which the EC50 in assay [3] (Homo sapiens, T-cell, 96 h) is below 100 nM.

On to `C[C@H]1C[C@@H](c2cn[nH]c2)CN(c2nccc(-c3cnc4ccc(C(F)(F)F)cn34)n2)C1` [I-137, 3-(2-((3S,5S)-3-Methyl-5-(1H-pyrazol-4-yl)piperidin-1-yl)pyrimidin-4-yl)-6-(trifluoromethyl)imidazo[1,2-a]pyridine], for which the 50% inhibitory concentration (IC50) in assay [2] is below 500 nM. In assay [3] (Homo sapiens, T-cell, 96 h), the EC50 fell in the range of 100 to 500 nM. For `C[C@@H]1[C@H](C(N)=O)N(C2CC2)CCN1c1ccnc(-c2cnc3ccc(Cl)cn23)n1` [I-547, (2R,3R)-4-(2-(6-chloroimidazo[1,2-a]pyridin-3-yl)pyrimidin-4-yl)-1-cyclopropyl-3-methylpiperazine-2-carboxamide], the EC50 in assay [3] (Homo sapiens, T-cell, 96 h) was in the range of 100 to 500 nM. Consider `NC(=O)[C@H]1CCCN(c2ccnc(-c3cnc4cc(F)c(Cl)cn34)n2)C1` [I-558, (S)-1-(2-(6-chloro-7-fluoroimidazo[1,2-a]pyridin-3-yl)pyrimidin-4-yl)piperidine-3-carboxamide], for which, in assay [3] (Homo sapiens, T-cell, 96 h), the EC50 is 100 to 500 nM. Take `Cc1[nH]ncc1[C@@H]1CN(c2nccc(-c3cnc4ccc(C(F)(F)F)cn34)n2)C[C@H](C)O1` [I-116]: the IC50 in assay [2] lay within 500 to 5000 nM. The EC50 in assay [3] (Homo sapiens, T-cell, 96 h) was below 100 nM. With `C[C@@H]1C[C@@H](c2cn[nH]c2)CN(c2ccnc(-c3cnc4ccc(C(F)(F)F)cn34)n2)C1` [I-567, 3-(4-((3R,5S)-3-methyl-5-(1H-pyrazol-4-yl)piperidin-1-yl)pyrimidin-2-yl)-6-(trifluoromethyl)imidazo[1,2-a]pyridine], in assay [3] (Homo sapiens, T-cell, 96 h), the EC50 was below 100 nM. With `C[C@H]1CN(c2ccnc(-c3cnc4ccc(Cl)cn34)n2)[C@@H](C)[C@@H](c2cn[nH]c2)N1` [I-563, 6-chloro-3-(4-((2S,3R,5S)-2,5-dimethyl-3-(1H-pyrazol-4-yl)piperazin-1-yl)pyrimidin-2-yl)imidazo[1,2-a]pyridine], the EC50 in assay [3] (Homo sapiens, T-cell, 96 h) lay in the range of 100 to 500 nM. For `CC(=O)N1CCN(c2ccnc(-c3cnc4ccc(C(F)F)cn34)n2)CC1` [I-14, 1-[4-[2-[6-(Difluoromethyl)imidazo[1,2-a]pyridin-3-yl]pyrimidin-4-yl]piperazin-1-yl]ethanone], the Ki in assay [1] is 10 to 100 nM. For the same compound, the concentration for half-maximal inhibition (IC50) in assay [2] is 500 to 5000 nM.

As for `FC1(F)CCCN(c2ccnc(-c3cnc4ccc(C(F)(F)F)cn34)n2)C1` [I-224, 3-(4-(3,3-difluoropiperidin-1-yl)pyrimidin-2-yl)-6-(trifluoromethyl)imidazo[1,2-a]pyridine], the IC50 is 100 to 1000 nM in assay [1] and below 500 nM in assay [2]. The compound `CS(=O)(=O)NC[C@@H]1CN(c2ccnc(-c3cnc4ccc(C(F)(F)F)cn34)n2)CCO1` [I-1, N-[[(2S)-4-[2-[6-(Trifluoromethyl)imidazo[1,2-a]pyridin-3-yl]pyrimidin-4-yl]morpholin-2-yl]methyl]methanesulfonamide] displayed a Ki in assay [1] of 10 to 100 nM. In assay [2], the half-maximal inhibitory concentration (IC50) lay within 500 to 5000 nM.
